Calls of active or inactive are those of the source. No cut-off for these calls is given here.
Legend:
[1] = biological target: T1, Mushroom tyrosinase (Agaricus bisporus) (UniProt O42713+Q00024+C7FF04+C7FF05); assay: Inhibition of immobilized mushroom tyrosinase diphenolase activity assessed as reduction in caffeic acid oxidation at 50 uM by amperometric tyrosinase biosensor method
Lymphocyte = assay: Cytotoxicity against human lymphocytes; assay type: cell-based
[2] = biological target: T1, Mushroom tyrosinase (Agaricus bisporus); assay: Inhibition of mushroom tyrosinase assessed as reduction in caffeic acid oxidation measured after 6 mins by UV-Vis spectrophotometric method
[3] = Aqueous solubility of the compound; assay type: physicochemical; settings: buffer
[4] = biological target: T1, Mushroom tyrosinase (Agaricus bisporus); assay: Inhibition of mushroom tyrosinase diphenolase activity assessed as reduction in caffeic acid oxidation measured after 6 mins by UV-Vis spectrophotometric method
[5] = biological target: T1, Mushroom tyrosinase (Agaricus bisporus); assay: Inhibition of mushroom tyrosinase monophenolase activity assessed as reduction in lag time of enzymatic reaction at 50 uM using caffeic acid as substrate by amperometric tyrosinase biosensor method

| inhibition [1] | inhibition [2] | solubility [3] | inhibition [4] [%] | inhibition [5] | Compound | IC50 (Lymphocyte) [µM] |
| --- | --- | --- | --- | --- | --- | --- |
| Active | – | – | – | – | COc1cc(C)c(-c2cc(O)c(OC)cc2C)cc1O | – |
| Active | Active | – | – | – | C=CCc1cc(-c2ccc(O)c(CC=C)c2)ccc1O | < 100 |
| Active | Active | – | – | – | COc1cc(O)cc(-c2cc(O)cc(OC)c2OC)c1OC | – |
| Active | Active | – | – | – | Oc1cccc(O)c1-c1c(O)cccc1O | – |
| Active | Active | Soluble | 60 | – | Oc1ccc(-c2ccc(O)c(O)c2)cc1O | – |
| Active | Active | – | – | – | Oc1ccc(-c2ccc(O)cc2)cc1 | – |
| 82% | Active | – | – | Active | Oc1ccc2c(c1-c1c(O)ccc3c1OCO3)OCO2 | – |

| Compound | inhibition [1] | inhibition [2] | solubility [3] | inhibition [4] [%] | inhibition [5] | IC50 (Lymphocyte) [µM] |
| --- | --- | --- | --- | --- | --- | --- |
| Oc1ccccc1-c1ccccc1O | 10 to 20% | 10% | – | – | – | – |
